Patent publication US11384078B2, “5,6-fused-bicyclic compounds and compositions for the treatment of parasitic diseases” (NOVARTIS AG, priority 2017, dated 2022)

Experiments:
Format in all cases: cell-based
[1] = system: Trypanosoma brucei brucei (Lister 427) strain; experiment: Assay for growth inhibition against Trypanosoma brucei brucei (Cell TiterGlo ATP luminescence); conditions: Trypanosoma brucei, T. brucei brucei (Lister 427); read-out: T. Brucei (HAT) EC50
Method in brief: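 T. b. brucei Lister 427 grown in HMI-9 with 10% FBS and 10% serum plus, seeded at 10,000 parasites/mL with 10-point threefold compound dilutions in duplicate, 37 °C for 2 days. Viability read as ATP luminescence 30 min after Cell TiterGlo; IC50 versus untreated controls.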

[2] = system: Trypanosoma cruzi amastigotes cultured in 3T3 fibroblast cells; experiment: Assay for growth inhibition of kinetoplastid parasite Trypanosoma cruzi (beta-galactosidase Tulahuen strain, CPRG readout); conditions: Trypanosoma cruzi, Fibroblast, T. cruzi amastigotes in 3T3 fibroblast cells; read-out: Buckner infectious T. cruzi EC50
Method in brief: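 3T3 fibroblasts (1,000 cells/well) plated overnight, treated with compound in DMSO, then infected with 10,000 Lac-Z-expressing Tulahuen trypomastigotes. After 6 days, 0.6 mM CPRG with 0.6% NP-40 added for 2 h at room temperature; absorbance gives relative intracellular amastigote numbers. Benznidazole and nifurtimox serve as positive controls.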

[3] = system: Leishmania donovani axenic amastigote; experiment: In vitro assay for growth inhibition of Leishmania donovani axenic amastigote (Cell TiterGlo luminescence); conditions: Leishmania donovani, L. donovani axenic amastigotes in vitro; read-out: L. donovani amastigotes EC50
Method in brief: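 Axenic L. donovani amastigotes (9600/well) grown at 37 °C, 5% CO2 in supplemented RPMI 1640, pH 5.5, with compound added from DMSO. After two days, viability read by CellTiter-Glo luminescence against DMSO and control-compound wells.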

[4] = system: L. donovani HU3 strain in mouse peritoneal macrophages; experiment: Assay for inhibition of parasitemia of Leishmania donovani in mouse macrophages (SYBR Green nuclei count, high-content imaging); conditions: Leishmania donovani, Peritoneal macrophage, L. donovani in mouse peritoneal macrophages; read-out: L. donovani in Mouse Macrophages EC50
Description: Assay for Inhibition of Parasitemia of Leishmania donovani in Mouse Macrophages
The assay measures the increase in the parasite number in the assayed plate well using a DNA intercalating dye, SYBR Green I® dye (INVITROGEN) to stain Leishmania cell nuclei. L. donovani HU3 strain is propagated by infecting BALB/c mice through tail vein injection with 10^7 Leishmania parasites. Infected mice are allowed to develop infection during 9-11 weeks post-infection. During this time, the parasites accumulate in the infected mouse spleens to large numbers, and the infected mice serve as the source of parasites for the in vitro measurement of compound efficacies. To assay a compound for anti-leishmanial activity, peritoneal macrophages isolated from non-infected BALB/c mice are seeded into 384-well plates at density 2×10^4 macrophages per well in […] of medium (RPM11640, 10% fetal serum albumin, 10 mM HEPES, 1 mM sodium pyruvate, 1% Pen/Strep). Subsequently, the seeded plates are placed into an incubator set to maintain 37° C. temperature and atmosphere with 5% CO2.
The next day, Leishmania parasites are isolated from the spleens of mice infected for 9-11 weeks and 4×10^5 isolated parasites in […] of the above media are added to each plate well. Plates are then returned into incubators and infection is allowed to proceed for 24 hours. After the infection of macrophages is completed, […] of compounds of the invention in the above medium, which also contains 5% DMSO, are added to plate wells containing infected macrophages. At the same time control compounds (miltefosine and amphotericin B) and DMSO are added to plates to serve as the positive and negative controls, respectively. After the compound addition, the plates are returned into incubator and cells infected with parasites are cultured for 5 days. At the end of cultivation, […] of 8% paraformaldehyde is added to plate wells and incubated for 15 min at room temperature. Following the incubation, the paraformaldehyde from plate wells is aspirated, and […] of PBS containing 0.2% Triton X-100 is added to wells. After 15 min incubation, the solution is aspirated from wells again, and replaced with Sybr® Green Dye solution in PBS (1:125,000 dilution). Infected cells are imaged with Evotec Opera high-content microscope, and the number of parasites in well is determined by counting parasite nuclei visualized by staining with Sybr® Green dye.

| Compound | EC50 [1] [nM] | EC50 [2] [nM] | EC50 [3] [nM] | EC50 [4] [nM] |
| --- | --- | --- | --- | --- |
| CCC(C)(C)c1cnc2nn(-c3cc(NC(=O)N4CC(F)(F)C4)ccc3F)cc2c1 [Compound 35, 3,3-difluoro-N-{4-fluoro-3-[5-(2-methylbutan-2-yl)-2H-pyrazolo[3,4-b]pyridin-2-yl]phenyl}azetidine-1-carboxamide] | 850 | 380 | 580 | 520 |
| CC(C)CCc1cnc2nn(-c3cc(NC(=O)N4CC(F)(F)C4)ccc3F)cc2c1 [Compound 38, 3,3-difluoro-N-{4-fluoro-3-[5-(3-methylbutyl)-2H-pyrazolo[3,4-b]pyridin-2-yl]phenyl}azetidine-1-carboxamide] | 24 | 62 | 31 | 33 |
| O=C(Nc1ccc(F)c(-n2cc3cc(-c4ccccn4)cnc3n2)c1)N1CC(F)(F)C1 [Compound 39, 3,3-difluoro-N-(4-fluoro-3-(5-(pyridin-2-yl)-2H-pyrazolo[3,4-b]pyridin-2-yl)phenyl)azetidine-1-carboxamide] | < 23 | 2 | 2.4 | 3.8 |
| O=C(Nc1ccc(F)c(-n2cc3cc(C4CC4)cnc3n2)c1)N1CC[C@@H](F)C1 [Compound 42, (3R)-N-(3-{5-cyclopropyl-2H-pyrazolo[3,4-b]pyridin-2-yl}-4-fluorophenyl)-3-fluoropyrrolidine-1-carboxamide] | < 23 | 1.8 | 3 | 6 |
| CC(C)(C)Cc1cnc2nn(-c3cc(NC(=O)N4CC[C@@H](F)C4)ccc3F)cc2c1 [Compound 46, (3R)-N-{3-[5-(2,2-dimethylpropyl)-2H-pyrazolo[3,4-b]pyridin-2-yl]-4-fluorophenyl}-3-fluoropyrrolidine-1-carboxamide] | < 23 | 1.7 | 8.4 | 3.5 |
| CCCC(C)c1cnc2nn(-c3cc(NC(=O)N4CC[C@@H](F)C4)ccc3F)cc2c1 (stereo partly drawn) [Compound 48, (3R)-3-fluoro-N-{4-fluoro-3-[5-(pentan-2-yl)-2H-pyrazolo[3,4-b]pyridin-2-yl]phenyl}pyrrolidine-1-carboxamide] | 50 | 290 | 350 | 330 |
| CCC(C)(C)c1cnc2nn(-c3cc(NC(=O)N4CC[C@@H](F)C4)ccc3F)cc2c1 [Compound 49, (3R)-3-fluoro-N-{4-fluoro-3-[5-(2-methylbutan-2-yl)-2H-pyrazolo[3,4-b]pyridin-2-yl]phenyl}pyrrolidine-1-carboxamide] | 3400 | 12000 | 25000 | 12000 |
| CCC(C)c1cnc2nn(-c3cc(NC(=O)N4CC[C@@H](F)C4)ccc3F)cc2c1 (stereo partly drawn) [Compound 50, (3R)-N-{3-[5-(butan-2-yl)-2H-pyrazolo[3,4-b]pyridin-2-yl]-4-fluorophenyl}-3-fluoropyrrolidine-1-carboxamide] | < 23 | 79 | 78 | 100 |
| CC(C)CCc1cnc2nn(-c3cc(NC(=O)N4CC[C@@H](F)C4)ccc3F)cc2c1 [Compound 52, (3R)-3-fluoro-N-{4-fluoro-3-[5-(3-methylbutyl)-2H-pyrazolo[3,4-b]pyridin-2-yl]phenyl}pyrrolidine-1-carboxamide] | < 23 | 13 | 19 | 11 |
| O=C(Nc1ccc(F)c(-n2cc3cc(-c4ccccn4)cnc3n2)c1)N1CC[C@@H](F)C1 [Compound 53, (3R)-3-fluoro-N-{4-fluoro-3-[5-(pyridin-2-yl)-2H-pyrazolo[3,4-b]pyridin-2-yl]phenyl}pyrrolidine-1-carboxamide] | < 23 | 1 | 1.3 | 2 |
| CC(C)(C)Cc1cnc2nn(-c3cc(NC(=O)c4ccco4)ccc3F)cc2c1 [Compound 59, N-{3-[5-(2,2-dimethylpropyl)-2H-pyrazolo[3,4-b]pyridin-2-yl]-4-fluorophenyl}furan-2-carboxamide] | < 23 | 4.7 | 68 | 21 |
